Drawing on US20240383911A1, “AZAINDAZOLE MACROCYCLE COMPOUNDS AND USES THEREOF” (BROADENBIO CO., LTD, priority 2021, published 2024), this text covers activity and IC50 for 17 compounds.

Experiment [1] concerns Human Jurkat-E6-1 cells. As to the kind of experiment: Detection of IL-2 production by Jurkat cells using ELISA. Type of experiment: cell-based. The conditions noted are these: anti-CD3/anti-CD28 stimulation 24 hours, read-out: Percentage of the amount of IL-2 secreted by compound treated vs DMSO-treated cells; for activity at 1 µM: tested compound 1.0 μM; for activity at 0.33 µM: tested compound 0.33 μM. The protocol: (§1) Tested compounds: compounds prepared in the Examples of this invention.
Human Jurkat-E6-1 cells were incubated with various concentrations of tested compounds for 30 minutes in a humidified incubator at 37° C. and 5% CO2. Cells were transferred to cell culture plates pre-coated with anti-human CD3 antibody, then soluble anti-human CD28 antibody was added, and cells were stimulated for 24 hours at 37° C. and 5% CO2 in a humidified incubator. The cell culture medium was collected after centrifugation, and was then transferred to a 96-well transparent microtiter plate (Thermo) pre-coated with anti-human IL-2 antibody, incubated at room temperature for 2 hours with gently shaking, washed with washing buffer for 4 times, and then followed the ELISA MAX Deluxe Set Human IL-2 (BioLegend) kit procedures, used a microplate reader (Molecular Device, i3X) to read the GD value at 450 nm. The best standard curve was selected by the microplate reader application software, and the corresponding concentration was calculated according to the GD value of the standard. Results are expressed as a percentage (%) of the amount of IL-2 secreted by compound-treated vs DMSO-treated cells.

The target in experiment [2] is HPK1 (Homo sapiens, UniProt Q92918). In words: HPK1 kinase activity inhibition test (ADP-Glo, luminescence). The experiment is classed as biochemical. The conditions noted are these: 2 μM ATP, 5 nM HPK1, read-out: IC50, inhibitory effects on HPK1 kinase activity. The protocol:
The kinase activity of HPK1 is manifested as activity of autophosphorylation and phosphorylation of downstream substrates. In the process of autophosphorylation, additional substrates are not required, and ATP is consumed to generate ADP. The amount of the product is measured by ADP-Glo reagent and luminescence method to reflect kinase activity.
as §1
Preparation of compound stock solution: dissolve the test compound in 100% DMSO to make a 10 mM stock solution;
Preparation of 4×Kinase Reaction Buffer:
Preparation of 2×HPK1 Kinase Solution:
Preparation of 4×ATP Mixture:
Dilute the stock solution of the test compound by 5 times with 100% DMSO, make a 4-fold equal dilution in a 96-well dilution plate, add 1 μL of the compound to 49 μL of kinase reaction buffer, and shake on a microplate shaker for 20 minutes. Transfer 2 μL of 2×HPK1 kinase solution to 384 reaction plate, add 1 μL of the test compound to the 384 reaction plate (Greiner, Cat #784075), centrifuge for 1 minute (1000 rpm/min), incubate at 25° C. for 10 minutes. Transfer 1 μL of the 4×ATP mixture to a 384 reaction plate, centrifuge for 1 minute (1000 rpm/min), and incubate at 25° C. for 60 minutes. In the reaction system, the final concentration of DMSO is 0.5%. Transfer 4 μL of ADP-Glo to a 384 reaction plate, centrifuge for 1 minute (1000 rpm/min), and incubate at 25° C. for 40 minutes. Transfer 8 μL detection solution to a 384 reaction plate, centrifuge for 1 minute (1000 rpm/min), and incubate at 25° C. for 40 minutes. The […] is read using a Biotek multi-function plate reader, and the IC50 (half inhibitory concentration) of the compound is obtained using a four-coefficient nonlinear fitting formula.

Sequence of HPK1 (Q92918 whole entry): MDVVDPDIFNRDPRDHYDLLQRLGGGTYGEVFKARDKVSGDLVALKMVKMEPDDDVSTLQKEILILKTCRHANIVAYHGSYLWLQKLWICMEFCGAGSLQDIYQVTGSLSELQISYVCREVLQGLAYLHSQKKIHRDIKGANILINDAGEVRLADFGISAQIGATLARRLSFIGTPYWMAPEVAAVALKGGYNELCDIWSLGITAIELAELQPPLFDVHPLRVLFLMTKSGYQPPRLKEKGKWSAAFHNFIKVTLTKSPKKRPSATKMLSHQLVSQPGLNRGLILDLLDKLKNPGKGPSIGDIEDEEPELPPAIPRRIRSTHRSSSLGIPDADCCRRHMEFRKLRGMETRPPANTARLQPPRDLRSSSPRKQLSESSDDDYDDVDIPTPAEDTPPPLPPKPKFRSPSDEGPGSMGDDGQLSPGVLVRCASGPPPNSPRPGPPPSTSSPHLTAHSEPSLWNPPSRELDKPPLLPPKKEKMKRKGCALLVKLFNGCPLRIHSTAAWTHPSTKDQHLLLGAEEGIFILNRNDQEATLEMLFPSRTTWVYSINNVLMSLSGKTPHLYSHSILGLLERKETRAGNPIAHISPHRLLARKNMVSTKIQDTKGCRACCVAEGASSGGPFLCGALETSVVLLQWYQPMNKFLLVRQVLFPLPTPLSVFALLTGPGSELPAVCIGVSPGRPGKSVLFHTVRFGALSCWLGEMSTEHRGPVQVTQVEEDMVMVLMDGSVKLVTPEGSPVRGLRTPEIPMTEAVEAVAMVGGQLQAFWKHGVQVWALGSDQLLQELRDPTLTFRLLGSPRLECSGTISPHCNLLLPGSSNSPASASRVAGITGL

Consider `OC1CCN(c2ccc3cc2OCCCOc2cccc(F)c2-c2cc4c-3n[nH]c4cn2)CC1` [Compound 106, 16-fluoro-5-(4-hydroxypiperidin-1-yl)-7,11-dioxa-19,22,23-triazapentacyclo[16.5.2.1^2,6.0^12,17.0^21,24]hexacosa-1(23),2,4,6(26),12(17),13,15,18,20,24-decaene], for which the activity at 1 µM in experiment [1] came to 504%. Moreover, the IC50 in experiment [2] lay within 5 to 50 nM.
Taken in the same sequence, the figures for `OC1CCN(c2ccc3cc2OCCCOCc2cccc(F)c2-c2cc4c-3n[nH]c4cn2)CC1` [Compound 107, 17-fluoro-5-(4-hydroxypiperidin-1-yl)-7,11-dioxa-20,23,24-triazapentacyclo[17.5.2.1^2,6.0^13,18.0^22,25]heptacosa-1(24),2,4,6(27),13(18),14,16,19,21,25-decaene] were 345% and no more than 5 nM.
As to `CN1CCN(C2CCN(c3ccc4cc3OCCCOc3cccc(F)c3-c3cc5c-4n[nH]c5cn3)CC2)CC1` [Compound 108, 16-fluoro-5-[4-(4-methylpiperazin-1-yl)piperidin-1-yl]-7,11-dioxa-19,22,23-triazapentacyclo[16.5.2.1^2,6.0^12,17.0^21,24]hexacosa-1(23),2,4,6(26),12(17),13,15,18,20,24-decaene], in experiment [1], the activity at 0.33 µM came out at 213%. For the same compound, the half-inhibitory concentration (IC50) in experiment [2] is no more than 5 nM.
Turning to `CN1CCN(C2CCN(c3ccc4cc3OCCCOCc3cccc(F)c3-c3cc5c-4n[nH]c5cn3)CC2)CC1` [Compound 109, 17-fluoro-5-[4-(4-methylpiperazin-1-yl)piperidin-1-yl]-7,11-dioxa-20,23,24-triazapentacyclo[17.5.2.1^2,6.0^13,18.0^22,25]heptacosa-1(24),2,4,6(27),13(18),14,16,19,21,25-decaene], in experiment [1], the activity at 1 µM was found to be 264%. The half-maximal inhibitory concentration (IC50) in experiment [2] is no more than 5 nM.
With `CN(C)C1(C)CCN(c2ccc3cc2OCCCOc2cccc(F)c2-c2cc4c-3n[nH]c4cn2)CC1` [Compound 110, 1-{16-fluoro-7,11-dioxa-19,22,23-triazapentacyclo[16.5.2.1^2,6.0^12,17.0^21,24]hexacosa-1(23),2,4,6(26),12(17),13,15,18,20,24-decaen-5-yl}-N,N,4-trimethylpiperidin-4-amine], the activity at 0.33 µM in experiment [1] came to 222%. Moreover, the half-inhibitory concentration (IC50) in experiment [2] is no more than 5 nM.
For the compound `CN(C)C1(C)CCN(c2ccc3cc2OCCCOCc2cccc(F)c2-c2cc4c-3n[nH]c4cn2)CC1` [Compound 111, 1-{17-fluoro-7,11-dioxa-20,23,24-triazapentacyclo[17.5.2.1^2,6.0^13,18.0^22,25]heptacosa-1(24),2,4,6(27),13(18),14,16,19,21,25-decaen-5-yl}-N,N,4-trimethylpiperidin-4-amine], the activity at 0.33 µM in experiment [1] stood at 388%. For the same compound, the IC50 in experiment [2] is no more than 5 nM.
Consider `OC1CCN(C2CCN(c3ccc4cc3OCCCOCc3cccc(F)c3-c3cc5c-4n[nH]c5cn3)CC2)CC1` [Compound 112, 1′-{17-fluoro-7,11-dioxa-20,23,24-triazapentacyclo[17.5.2.1^2,6.0^13,18.0^22,25]heptacosa-1(24),2,4,6(27),13(18),14,16,19,21,25-decaen-5-yl}-[1,4'-bipiperidin]-4-ol], for which the activity at 1 µM in experiment [1] was found to be 245%. Besides, in experiment [2], the IC50 is no more than 5 nM.
For `OC1(CN2CCOCC2)CCN(c2ccc3cc2OCCCOc2cccc(F)c2-c2cc4c-3n[nH]c4cn2)CC1` [Compound 113, 1-{16-fluoro-7,11-dioxa-19,22,23-triazapentacyclo[16.5.2.1^2,6.0^12,17.0^21,24]hexacosa-1(23),2,4,6(26),12(17),13,15,18,20,24-decaen-5-yl}-4-[(morpholin-4-yl)methyl]piperidin-4-ol], the activity at 0.33 µM in experiment [1] was 265%. Also, the IC50 in experiment [2] lay in the range of 5 to 50 nM.
Taken in the same sequence, the figures for `CN1CCN(c2ccc3cc2OCC(O)COc2cccc(F)c2-c2cc4c-3n[nH]c4cn2)CC1` (stereo not shown) [Compound 114, 16-fluoro-5-(4-methylpiperazin-1-yl)-7,11-dioxa-19,22,23-triazapentacyclo[16.5.2.1^2,6.0^12,17.0^21,24]hexacosa-1(23),2,4,6(26),12(17),13,15,18,20,24-decaen-9-ol] were 239% and no more than 5 nM.
As for `CN1CCN(c2ccc3cc2OCCCOCc2cccc(F)c2-c2ncc4[nH]nc-3c4n2)CC1` [Compound 115, 17-fluoro-5-(4-methylpiperazin-1-yl)-7,11-dioxa-20,23,24,26-tetraazapentacyclo[17.5.2.1^2,6.0^13,18.0^22,25]heptacosa-1(24),2,4,6(27),13(18),14,16,19,21,25-decaene], the activity at 1 µM in experiment [1] turned out to be 263%. In experiment [2], the IC50 is 5 to 50 nM.
`CN1C2CC1CN(c1ccc3cc1OCCCOCc1cccc(F)c1-c1cc4c-3n[nH]c4cn1)C2` [Compound 116, 17-fluoro-5-{6-methyl-3,6-diazabicyclo[3.1.1]heptan-3-yl}-7,11-dioxa-20,23,24-triazapentacyclo[17.5.2.1^2,6.0^13,18.0^22,25]heptacosa-1(24),2,4,6(27),13(18),14,16,19,21,25-decaene]: the activity at 0.33 µM in experiment [1] was found to be 450%. Besides, the half-inhibitory concentration (IC50) in experiment [2] was no more than 5 nM.
For the compound `CN1C2CC1CN(c1ccc3cc1OCCCOc1cccc(F)c1-c1cc4c-3n[nH]c4cn1)C2` [Compound 117, 16-fluoro-5-{6-methyl-3,6-diazabicyclo[3.1.1]heptan-3-yl}-7,11-dioxa-19,22,23-triazapentacyclo[16.5.2.1^2,6.0^12,17.0^21,24]hexacosa-1(23),2,4,6(26),12(17),13,15,18,20,24-decaene], the activity at 1 µM in experiment [1] turned out to be 525%. In addition, the IC50 in experiment [2] is no more than 5 nM.
Turning to `O[C@@H]1COc2cc(ccc2N2CCN3CCOC[C@H]3C2)-c2n[nH]c3cnc(cc23)-c2c(F)cccc2OC1` [Compound 120, (9S)-5-[(9aR)-octahydropyrazino[2,1-c][1,4]oxazin-8-yl]-16-fluoro-7,11-dioxa-19,22,23-triazapentacyclo[16.5.2.1^2,6.0^12,17.0^21,24]hexacosa-1(23),2,4,6(26),12(17),13,15,18,20,24-decaen-9-ol], in experiment [1], the activity at 1 µM worked out at 494%. Further, the IC50 in experiment [2] is no more than 5 nM.
Consider `CN1CCN(c2ccc3cc2OCCCOCc2cccc(F)c2-c2cc4c-3n[nH]c4cn2)C[C@@H]1CO` [Compound 121, [(2R)-4-{17-fluoro-7,11-dioxa-20,23,24-triazapentacyclo[17.5.2.1^2,6.0^13,18.0^22,25]heptacosa-1(24),2,4,6(27),13(18),14,16,19,21,25-decaen-5-yl}-1-methylpiperazin-2-yl]methanol], for which the activity at 0.33 µM in experiment [1] was 467%. Also, in experiment [2], the IC50 is no more than 5 nM.
In the case of `O=C1OC[C@H]2CN(c3ccc4cc3OCCCOCc3cccc(F)c3-c3cc5c-4n[nH]c5cn3)CCN12` [Compound 123, (8aR)-7-{17-fluoro-7,11-dioxa-20,23,24-triazapentacyclo[17.5.2.1^2,6.0^13,18.0^22,25]heptacosa-1(24),2,4,6(27),13(18),14,16,19,21,25-decaen-5-yl}-hexahydro-1H-[1,3]oxazolo[3,4-a]pyrazin-3-one], the activity at 1 µM in experiment [1] stood at 440%. For the same compound, the IC50 in experiment [2] was no more than 5 nM.
Taken in the same sequence, the figures for `O=C1OC[C@@H]2CN(c3ccc4cc3OCCCOCc3cccc(F)c3-c3cc5c-4n[nH]c5cn3)CCN12` [Compound 124, (8aS)-7-{17-fluoro-7,11-dioxa-20,23,24-triazapentacyclo[17.5.2.1^2,6.0^13,18.0^22,25]heptacosa-1(24),2,4,6(27),13(18),14,16,19,21,25-decaen-5-yl}-hexahydro-1H-[1,3]oxazolo[3,4-a]pyrazin-3-one] were 630% and no more than 5 nM.
On to `CN1C[C@H]2CN(c3ccc4cc3OCCCOCc3cccc(F)c3-c3cc5c-4n[nH]c5cn3)CCN2CC1=O` [Compound 127, (9aR)-8-{17-fluoro-7,11-dioxa-20,23,24-triazapentacyclo[17.5.2.1^2,6.0^13,18.0^22,25]heptacosa-1(24),2,4,6(27),13(18),14,16,19,21,25-decaen-5-yl}-2-methyl-octahydro-1H-[1,4]diazino[1,2-a]pyrazin-3-one], for which the activity at 0.33 µM in experiment [1] stood at 475%. The IC50 in experiment [2] is no more than 5 nM.
